From ChEMBL document CHEMBL4342525, “Synthesis and Biochemical Evaluation of Noncyclic Nucleotide Exchange Proteins Directly Activated by cAMP 1 (EPAC1) Regulators” (J Med Chem, 2020)
Active and inactive are the calls of the source. The rule behind the calls is not given here.

Tests used:
[1] = target: T1, Rap guanine nucleotide exchange factor 3 (Homo sapiens) (UniProt O95398); test: Binding affinity to GST-tagged recombinant EPAC1 CNBD (169 to 318 residues) (unknown origin) expressed in Escherichia coli BL21 Star (DE3) assessed as relative fluorescence intensity incubated for 4 hrs by 8-NBD-cAMP competition binding assay relative to control; parameters: concentration or dose not given beside the values
T1 sequence (whole entry): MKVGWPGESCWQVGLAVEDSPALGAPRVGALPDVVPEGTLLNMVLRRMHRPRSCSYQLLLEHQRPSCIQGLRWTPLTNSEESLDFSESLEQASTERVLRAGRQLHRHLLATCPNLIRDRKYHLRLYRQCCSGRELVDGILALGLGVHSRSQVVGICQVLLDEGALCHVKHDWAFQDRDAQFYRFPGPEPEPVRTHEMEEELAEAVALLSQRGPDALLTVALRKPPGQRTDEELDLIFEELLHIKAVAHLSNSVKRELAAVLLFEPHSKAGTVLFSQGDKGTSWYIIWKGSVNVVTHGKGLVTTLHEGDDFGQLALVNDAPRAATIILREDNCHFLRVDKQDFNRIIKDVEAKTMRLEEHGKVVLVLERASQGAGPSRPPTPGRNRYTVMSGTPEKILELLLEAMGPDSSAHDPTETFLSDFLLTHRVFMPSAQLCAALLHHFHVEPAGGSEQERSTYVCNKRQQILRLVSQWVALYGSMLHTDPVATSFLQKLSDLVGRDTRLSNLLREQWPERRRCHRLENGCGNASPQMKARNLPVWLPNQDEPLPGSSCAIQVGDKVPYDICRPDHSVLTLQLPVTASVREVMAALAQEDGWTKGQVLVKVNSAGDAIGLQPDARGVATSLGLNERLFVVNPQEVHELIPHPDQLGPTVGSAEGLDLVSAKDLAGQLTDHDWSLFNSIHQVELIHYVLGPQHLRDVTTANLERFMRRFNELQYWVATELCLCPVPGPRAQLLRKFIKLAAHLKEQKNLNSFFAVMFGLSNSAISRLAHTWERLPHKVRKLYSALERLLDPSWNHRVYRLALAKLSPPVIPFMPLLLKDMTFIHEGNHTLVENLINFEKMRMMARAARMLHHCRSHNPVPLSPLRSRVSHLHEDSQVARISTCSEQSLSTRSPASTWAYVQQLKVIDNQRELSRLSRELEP

[2] = target: T2, Rap guanine nucleotide exchange factor 3 (Homo sapiens, UniProt O95398); test: Binding affinity to GST-tagged recombinant EPAC1 CNBD (169 to 318 residues) (unknown origin) expressed in Escherichia coli BL21 Star (DE3) incubated for 4 hrs by 8-NBD-cAMP competition binding assay
T2 sequence (O95398 whole entry): T1 sequence (whole entry)

[3] = target: T1, Rap guanine nucleotide exchange factor 3 (Homo sapiens); test: Activation of recombinant EPAC1 (149 to 881 residues) (unknown origin) assessed as stimulation of dissociation of fluorescent MANT-GDP from recombinant Rap1b at 10 uM in presence of excess nonfluorescent nucleotides by fluorescence based in-vitro GEF assay relative to cAMP
[4] = Activation of PKA in human U2OS cells stably transfected with EPAC1 assessed as increase in VASP phosphorylation at 100 uM by Western blot analysis; type: cell-based
[5] = target: T1, Rap guanine nucleotide exchange factor 3 (Homo sapiens); test: Activation of EPAC1 (unknown origin) expressed in U2OS cells at 100 uM incubated for 10 mins using GST-RalGDS-RBD by Western blot analysis based active GTP-bound Rap1 pull down assay; type: cell-based
[6] = target: T1, Rap guanine nucleotide exchange factor 3 (Homo sapiens); test: Activation of EPAC1 in HUVEC assessed as reduction in IL-6-promoted signaling by measuring pSTAT3 protein levels at 100 uM pre-incubated for 30 mins before IL6 and sIL6Ralpha stimulation for 5 hrs by Western blotting analysis; type: cell-based
[7] = target: T1, Rap guanine nucleotide exchange factor 3 (Homo sapiens); test: Activation of EPAC1 in HUVEC assessed as reduction in IL-6-promoted signaling by measuring pERK protein levels at 100 uM pre-incubated for 30 mins before IL6 and sIL6Ralpha stimulation for 5 hrs by Western blotting analysis; type: cell-based
[8] = target: T1, Rap guanine nucleotide exchange factor 3 (Homo sapiens); test: Activation of EPAC1 in HUVEC assessed as reduction in IL-6-promoted signaling by measuring pAKT protein levels at 100 uM pre-incubated for 30 mins before IL6 and sIL6Ralpha stimulation for 5 hrs by Western blotting analysis; type: cell-based
[9] = target: T1, Rap guanine nucleotide exchange factor 3 (Homo sapiens); test: Activation of EPAC1 in HUVEC assessed as reduction in IL-6-promoted signaling by measuring VCAM1 protein expression at 100 uM pre-incubated for 30 mins before IL6 and sIL6Ralpha stimulation for 5 hrs by Western blotting analysis; type: cell-based
[10] = target: T1, Rap guanine nucleotide exchange factor 3 (Homo sapiens); test: Activation of EPAC1 in HUVEC assessed as reduction in IL-6-promoted signaling by measuring ICAM1 protein expression at 100 uM pre-incubated for 30 mins before IL6 and sIL6Ralpha stimulation for 5 hrs by Western blotting analysis; type: cell-based
[11] = target: T1, Rap guanine nucleotide exchange factor 3 (Homo sapiens); test: Activation of EPAC1 in HUVEC assessed as reduction in IL-6-promoted signaling by measuring SELE protein expression at 100 uM pre-incubated for 30 mins before IL6 and sIL6Ralpha stimulation for 5 hrs by Western blotting analysis; type: cell-based
[12] = Binding affinity to GST-tagged recombinant EPAC1 delta-DEP mutant (149 to 881 residues) (unknown origin) expressed in Escherichia coli BL21 Star (DE3) incubated for 4 hrs by 8-NBD-cAMP competition binding assay; parameters: species or system Homo sapiens
[13] = target: T1, Rap guanine nucleotide exchange factor 3 (Homo sapiens); test: Activation of recombinant EPAC1 (149 to 881 residues) (unknown origin) assessed as stimulation of dissociation of fluorescent MANT-GDP from recombinant Rap1b at 500 uM in presence of excess nonfluorescent nucleotides by fluorescence based in-vitro GEF assay relative to cAMP
[14] = target: T1, Rap guanine nucleotide exchange factor 3 (Homo sapiens); test: Activity at recombinant EPAC1 (149 to 881 residues) (unknown origin) assessed as reduction in cAMP-induced stimulation of dissociation of fluorescent MANT-GDP from recombinant Rap1b at 500 uM in presence of excess nonfluorescent nucleotides by fluorescence based in-vitro GEF assay
[15] = target: T2, Rap guanine nucleotide exchange factor 3; test: Activation of recombinant EPAC1 (149 to 881 residues) (unknown origin) assessed as stimulation of dissociation of fluorescent MANT-GDP from recombinant Rap1b in presence of excess nonfluorescent nucleotides by fluorescence based in-vitro GEF assay
[16] = target: T1, Rap guanine nucleotide exchange factor 3 (Homo sapiens); test: Activation of EPAC1 (unknown origin) expressed in U2OS cells at 100 uM pre-incubated for 10 mins before 8-pCPT-2'-O-Me-cAMP stimulation for 10 mins using GST-RalGDS-RBD by Western blot analysis based active GTP-bound Rap1 pull down assay; type: cell-based

Activity [1] | SMILES | other results
92% | Cc1cc(C)c(S(=O)(=O)NC(=O)COc2ccc3cccnc3c2)c(C)c1 | 
92% | Cc1cc(C)c(S(=O)(=O)NC(=O)CSc2ccc3ccccc3c2)c(C)c1 | 
50% | Cc1ccc(S(=O)(=O)NC(=O)COc2ccc3cc(Cl)ccc3c2)c(C)c1 | 
82% | Cc1cc(C)c(S(=O)(=O)NC(=O)C(F)Oc2ccc3ccccc3c2)c(C)c1 (stereo not given) | 
94% | Cc1cc(C)c(S(=O)(=O)NC(=O)COc2cccc3ccccc23)c(C)c1 | 
76% | Cc1ccc(S(=O)(=O)NC(=O)C(C)(C)Oc2ccc3ccccc3c2)c(C)c1 | 
36% | Cc1cc(-c2cncc(F)c2)cc(S(=O)(=O)NC(=O)COc2ccc3ccccc3c2)c1 | 
38% | Cc1cc(C)cc(S(=O)(=O)NC(=O)COc2ccc3ccccc3c2)c1 | 
29% | COc1ccc2ccc(OCC(=O)NS(=O)(=O)c3cc(C)cc(Br)c3)cc2c1 | 
81% | Cc1cc(C)c(S(=O)(=O)NC(=O)COc2ccc3ccccc3c2)c(C)c1 | 
105% | Cc1cc(C)c(S(=O)(=O)NCCOc2ccc3ccccc3c2)c(C)c1 | 
105% | Cc1cc(C)c(S(=O)(=O)N2CCC(Oc3ccc4ccccc4c3)CC2)c(C)c1 | 
55% | Cc1ccc(S(=O)(=O)NC(=O)COc2ccc3cc(F)ccc3c2)c(C)c1 | 
66% | Cc1ccc(S(=O)(=O)NC(=O)COc2ccc3ccc(Cl)cc3c2)c(C)c1 | 
50% | COc1ccc(S(=O)(=O)NC(=O)COc2ccc3ccccc3c2)cc1OC | 
44% | Cc1ccc(S(=O)(=O)NC(=O)COc2ccc3ccccc3c2)cc1 | 
40% | Cc1cc(-c2ccco2)cc(S(=O)(=O)NC(=O)COc2ccc3ccccc3c2)c1 | 
34% | Cc1cc(-c2ccnn2C)cc(S(=O)(=O)NC(=O)COc2ccc3ccccc3c2)c1 | 
72% | COc1ccc(OC)c(S(=O)(=O)NC(=O)COc2ccc3ccccc3c2)c1 | 
49% | COc1ccc2ccc(OCC(=O)NS(=O)(=O)c3c(C)cc(C)cc3C)cc2c1 | 
97% | Cc1cc(C)c(S(=O)(=O)NC(=O)CNc2ccc3ccccc3c2)c(C)c1 | 
104% | CC(=O)c1c(OCC(=O)NS(=O)(=O)c2c(C)cc(C)cc2C)ccc2ccccc12 | 
58% | Cc1cc(Br)cc(S(=O)(=O)NC(=O)COc2ccc3ccccc3c2)c1 | 
81% | Cc1ccc(S(=O)(=O)NCCOc2ccc3ccccc3c2)c(C)c1 | 
23% | COc1ccc(S(=O)(=O)NC(=O)COc2ccc3ccccc3c2)c(OC)c1 | IC50 [12]: 4.9 µM; Activity [13]: 2%; Activity [14]: Active; EC50 [15]: 5 µM; Activity [16]: Active; Activity [3]: Active; Activity [4]: Not Active; Activity [5]: Active

More lines, now with the values behind:

SMILES | Activity [1] | other results
O=C(COc1ccc2ccccc2c1)NS(=O)(=O)c1cccc(-c2ccccc2)c1 | 35% | 
O=C(COc1ccc2ccccc2c1)NS(=O)(=O)c1ccccc1 | 49% | 
COc1cc2c(cc1OC)CN(CC(=O)NS(=O)(=O)c1c(C)cc(C)cc1C)CC2 | 102% | 
Cc1cc(C)c(S(=O)(=O)NC(=O)COc2ccc3c(c2)NC(=O)CC3)c(C)c1 | 77% | 
COc1ccc2ccc(OCC(=O)NS(=O)(=O)c3ccc([N+](=O)[O-])cc3OC)cc2c1 | 24% | 
O=C(COc1ccc2ccccc2c1)NS(=O)(=O)c1cccc([N+](=O)[O-])c1 | 67% | 
Cc1ccc(S(=O)(=O)NC(=O)COc2ccc3[nH]ncc3c2)c(C)c1 | 94% | 
O=C(COc1ccc2ccccc2c1)NS(=O)(=O)C1CCCCC1 | 81% | 
Cc1cc(C)c(S(=O)(=O)NC(=O)CN2CCN(c3ccccn3)CC2)c(C)c1 | 119% | 
O=C(COc1ccc2ccccc2c1)NS(=O)(=O)c1ccc(F)cc1 | 81% | 
Cc1cc(C)c(S(=O)(=O)NC(=O)CN2CCn3c(nnc3C(F)(F)F)C2)c(C)c1 | 104% | 
Cc1cc(C)c(S(=O)(=O)NC(=O)CN2CCc3ccccc3C2)c(C)c1 | 102% | 
COc1cccc(S(=O)(=O)NC(=O)COc2ccc3ccccc3c2)c1 | 33% | 
O=C(COc1ccc2ccccc2c1)NS(=O)(=O)c1ccccc1F | 69% | 
Cc1cc(Nc2ccc(C(F)(F)F)cn2)cc(S(=O)(=O)NC(=O)COc2ccc3ccccc3c2)c1 | 20% | 
Cc1cc(C)c(S(=O)(=O)NC(=O)CSc2nc3ccccc3c(=O)[nH]2)c(C)c1 | 95% | 
O=C(COc1ccc2ccccc2c1)NS(=O)(=O)c1cccc(-c2ccoc2)c1 | 53% | 
COc1ccc2ccc(OCC(=O)NS(=O)(=O)c3cc(Cl)cc(Cl)c3)cc2c1 | 54% | 
Cc1ccc(S(=O)(=O)NC(=O)COc2cccc3ccccc23)c(C)c1 | 71% | 
O=C(COc1ccc2ccccc2c1)NS(=O)(=O)c1cccc(F)c1 | 82% | 
COc1ccc2ccc(OCC(=O)NS(=O)(=O)c3ccc(OC)c(OC)c3)cc2c1 | 23% | 
Cc1ccc(S(=O)(=O)NC(=O)COc2ccc3[nH]ccc3c2)c(C)c1 | 91% | 
Cc1cc(C)c(S(=O)(=O)NC(=O)COc2ccc3c(c2)CCCC3)c(C)c1 | 77% | 
Cc1cc(C)c(S(=O)(=O)NC(=O)CNc2cccc(Cl)c2)c(C)c1 | 88% | 
O=C(COc1ccc2ccccc2c1)NS(=O)(=O)c1ccc([N+](=O)[O-])c(F)c1 | 81% | IC50 [2]: 32.5 µM; Activity [3]: Active; Activity [4]: Not Active; Activity [5]: Active; Activity [6]: inactive; Activity [7]: inactive; Activity [8]: inactive; Activity [9]: inactive; Activity [10]: inactive; Activity [11]: inactive
Nc1ccc(S(=O)(=O)NC(=O)COc2ccc3ccccc3c2)cc1F | inactive | Activity [3]: Active; Activity [4]: Not Active; Activity [5]: Active; Activity [6]: inactive; Activity [7]: inactive; Activity [8]: inactive; Activity [9]: inactive; Activity [10]: inactive; Activity [11]: inactive
COc1ccc(OC)c(S(=O)(=O)NC(=O)COc2ccc3ccc(OC)cc3c2)c1 | 49% | 
COC(=O)c1cccc(S(=O)(=O)NC(=O)COc2ccc3ccccc3c2)c1 | 71% | 
